Structures can show the parent of a compound that is named as a salt.

Experimental findings from US20070105837A1, “Novel derivatives of 4a,5,9,10,11,12-hexahydrobenzofuro[3a,3,2][2]-benzazepine, method for the production thereof and use thereof in the production of medicaments” (priority 2003, published 2007) are described below.

butyrylcholinesterase, sequence (P06276 29-602): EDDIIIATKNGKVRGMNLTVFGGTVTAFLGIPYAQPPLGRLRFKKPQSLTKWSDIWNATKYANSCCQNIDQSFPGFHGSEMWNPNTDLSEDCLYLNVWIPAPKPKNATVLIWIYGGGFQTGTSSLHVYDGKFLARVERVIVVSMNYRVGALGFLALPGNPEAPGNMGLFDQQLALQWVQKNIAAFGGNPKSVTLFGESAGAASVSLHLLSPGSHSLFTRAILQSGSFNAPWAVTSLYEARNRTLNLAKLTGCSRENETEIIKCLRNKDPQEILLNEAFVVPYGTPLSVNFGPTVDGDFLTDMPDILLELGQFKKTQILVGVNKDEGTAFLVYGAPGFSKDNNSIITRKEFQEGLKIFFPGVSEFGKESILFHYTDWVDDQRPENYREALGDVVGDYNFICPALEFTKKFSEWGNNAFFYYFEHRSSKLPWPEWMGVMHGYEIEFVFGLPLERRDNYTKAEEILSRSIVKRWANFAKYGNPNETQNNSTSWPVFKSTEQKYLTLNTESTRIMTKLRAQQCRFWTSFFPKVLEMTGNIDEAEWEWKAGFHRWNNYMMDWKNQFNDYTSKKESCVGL

One assay addresses butyrylcholinesterase (Homo sapiens, UniProt P06276). The experiment in a line: biochemical.
Conditions: not given
With `C=C(C)CN1CC[C@@]23C=C[C@@H](O)C[C@@H]2Oc2c(OC)ccc(c23)C1` [Example 17, (4aS,6S,SaS)-4a,5,9,10,11,12-hexahydro-3-methoxy-11-(2-methyl-prop-2-enyl)-6H-[1]benzofuro[3a,3,2-ef][2]benzazepin-6-ol], the IC50 is over 100 µM.
Still for that read-out and setting: under `COc1ccc2c3c1O[C@H]1C[C@@H](O)C=C[C@@]31CCN(CC(C)c1cccc(Oc3ccccc3)c1)C2` (stereo partly drawn) [Example 32, 2-((4aS,6R,8aS)-6-hydroxy-3-methoxy-5,6,9,10-tetrahydro-4aH-[1]benzofuro[3a,3,2-ef][2]benzazepine-11(12H)-yl)-1-methyl-1-(3-phenoxyphenyl)ethane hydrochloride] stands 0.36 µM; under `C=C(C)CN1CC[C@@]23C=C[C@H](O)C[C@@H]2Oc2c(OC)ccc(c23)C1` [Example 46, (4aS,6R,8aS)-4a,5,9,10,11,12-hexahydro-3-methoxy-11-(2-methyl-prop-2-enyl)-6H-[1]benzofuro[3a,3,2-ef][2]benzazepin-6-ol, hydrochloride], 0.34 µM.
The same measure, in the same setting: the value for `COc1ccc2c3c1O[C@@H]1C[C@H](O)C=C[C@]31CC[N+](C)=C2` [Example 55, (4aR,6S,8aR)-6-hydroxy-3-methoxy-11-methyl-4a,5,9,10-tetrnhydro-6H-benzofuro[3a,3,2-eq][2]benzazepinium bromide] was over 100 µM; that for `COc1ccc2c3c1O[C@@H]1C[C@@H](O)C=C[C@]31CC[N+](C)=C2` [Example 56, (4aR,6R,8aR)-6-hydroxy-3-methoxy-11-methyl-4a,5,9,10-tetrahydro-6H-benzofuro[3a,3,2-ef][2]benzazepineium bromide] was over 100 µM; that for `COc1ccc2c3c1O[C@H]1C[C@@H](O)C=C[C@@]31CCN(Cc1ccc(Br)cc1)C2` [Example 43, (4aS,6R,8aS)-11-(4-brombenzyl)-4a,5,9,10,11,12-hexahydro-3-methoxy-6H-[1]benzofuro[3a,3,2-ef][2]benzazepin-6-ol] was 0.0006 µM.

The assay is the same for the next values; noted with them: concentration at which 50% inhibition occurs; read-out: Butyrylcholinesterase IC-50.
Take “(4aS,6S,8aS)-1-bromo-6-hydroxy-3-methoxy-4a,5, 9,10-tetrahydro-6N-[1]benzofuro[3a,3,2-et][2]benzazepine-11(12H)-thiocarbonic acid allylamide [Example 2]”: the IC50 is over 100 µM.

Still in this assay, the particulars now being: read-out: Butyrylcholinesterase IC-50.
Turning to `COc1ccc2c3c1O[C@H]1C[C@H](O)C=C[C@@]31CCN(CC=C(C)C)C2` [Example 22, (4aS,6S,8aS)-4a,5,9,10,11,12-hexahydro-3-methoxy-11-(3-Methylbut-2-en-1-yl)-6H-[1]benzofuro[3a,3,2-ef][2]benzazepin-6-ol], the IC50 was 20 µM.
The same measure, in the same setting: the value for `COc1ccc2c3c1O[C@H]1C=C(C(C)C)C=C[C@@]31CCN(C)C2` [Example 61, (4aS,8aS)-D5,6-4a,5,9,10,11,12-hexahydro-6-(isopropyl)-11-methyl-3-methoxy-6H-[1]benzofuro [3a,3,2-ef][2]benzazepine] was 9 µM; that for `COc1cc(Br)c2c3c1O[C@@H]1C[C@H](O)C=C[C@]31CCN(Cc1ccccc1)C2` [Example 6, (4aR,6S,8aR)-11-benzyl-1-bromo-4a,5,9,10,11,12-hexahydro-3-methoxy-6H-[1]benzofuro[3a,3,2-ef][2]benzazepin-6-ol] was 19 µM; that for `C=CCNC(=S)N1CC[C@@]23C=C[C@@H](O)C[C@@H]2Oc2c(OC)cc(Br)c(c23)C1` [Example 12, (4aS,6R,8aS)-1-bromo-6-hydroxy-3-methoxy-4a,5,9,10-tetrahydro-6H-[1]benzofuro[3a,3,2-ef][2]benzazepine-11(12H)-thiocarbonic acid allylamide] was 11 µM.
As to `COc1ccc2c3c1O[C@H]1C[C@@H](O)C=C[C@@]31CCN(C(=O)NC1CCCCC1)C2` [Example 53, (4aS,6R,8aS)-N11-cydohexyl-6-hydroxy-3-methoxy-5,6,9,10-tetrahydro-4aH-[1]benzofuro[3a, 3,2-ef][2]benzazepine-11(12H)-carbonic acid isopropylamide], the IC50 is over 100 µM.
On to `COc1ccc2c3c1O[C@H]1C[C@@H](O)C=C[C@@]31CCN(CCCN(C)C)C2` [Example 52, (4aS,6R,8aS)-11-((3-dimethylamino)propyl)-3-methoxy-5,6,9,10,11,12-hexahydro-4aH-[1]benzofuro[3a,3,2-ef][2]benzazepin-6-ol], for which the IC50 was 2.1 µM.
On the same count and under the same terms, under `CCOC(=O)CCN1CC[C@@]23C=C[C@H](O)C[C@@H]2Oc2c(OC)ccc(c23)C1` [Example 47, Ethyl-3-((4aS,6R,8aS)-6-hydroxy-3-methoxy-5,6,9,10-tetrahydro-4aH-[1]benzofuro[3a,3,2-ef][2]benzazepine-11(12H)-yl)propanoate, hydrochloride] stands 51 µM; under `COc1ccc2c3c1O[C@H]1C[C@@H](O)C=C[C@@]31CCN(C(=O)c1ccc(Br)cc1)C2` [Example 41, (4aS,6R,8aS)-4a,5,9,10,11,12-hexahydro-3-methoxy-11-(4-bromo-benzoyl)-6H-[1]benzofuro[3a,3,2-ef][2]benzazepin-6-ol], 30 µM; under `COc1ccc2c3c1O[C@H]1C[C@@H](O)C=C[C@@]31CCN(C(=O)CN1CCOCC1)C2` [Example 48, 1-[(4aS,6R,8aS)-6-hydroxy-3-methoxy-5,6,9,10-tetrahydro-4aH-[1]benzofuro[3a,3,2-ef][2]benzazepine-11(12H)-yl]-2-(4-morpholinyl) ethan-1-one], 3.8 µM.
For the compound `COc1ccc2c3c1O[C@H]1C[C@@H](O)C=C[C@@]31CCN(C(=O)CCl)C2` [Example 54, 1-[(4aS,6R,8aS)-6-hydroxy-3-methoxy-5,6,9,10-tetrahydro-4aH-[1]benzofuro[3a,3,2-ef][2]benzazepine-11(12H)-yl]-2-chloroethan-1-one], the IC50 was over 100 µM.
For `COc1ccc2c3c1O[C@H]1C[C@@H](O)C=C[C@@]31CCN(C(=O)CN1CCCCC1)C2` [Example 36, 1-[(4aS,6R,8aS)-6-hydroxy-3-methoxy-5,6,9,10-tetrahydro-4aH-[1]benzofuro[3a,3,2-ef][2]benzazepine-11(12H)-yl]-2-(1-piperidyl)ethan-1-one], the IC50 was over 100 µM.
Consider `COc1ccc2c3c1O[C@H]1C[C@@H](O)C=C[C@@]31CCN(C(=O)CCN1CCCC1)C2` [Example 38, 1-[(4aS,6R,8aS)-6-hydroxy-3-methoxy-5,6,9,10-tetrahydro-4aH-[1]benzofuro[3a,3,2-ef][2]benzazepine-11(12H)-yl]-3-(1-pyrrolidyl) propan-1-one], for which the IC50 is 2.4 µM.
The same measure, in the same setting: under `COc1ccc2c3c1O[C@H]1C[C@@H](O)C=C[C@@]31CCN(CC(C)C(=O)c1ccc(C)cc1)C2` (stereo partly drawn) [Example 35, 3-[(4aS,6R,8aS)-6-hydroxy-3-methoxy-5,6,9,10-tetrahydro-4aH-[1]benzofuro[3a,3,2-ef][2]benzazepine-11(12H)-yl]-2-methyl-1(- 4-methylphenyl)propan-1-one, hydrochloride] stands 0.4 µM.
On the same count and under the same terms, under `COc1ccc2c3c1O[C@H]1C[C@@H](O)C=C[C@@]31CCN(C(=O)c1ccccc1)C2` [Example 33, (4aS,6R,8aS)-4a,5,9,10,11,12-hexahydro-3-methoxy-11-benzoyl-6H-[1]benzofuro[3a,3,2-ef][2]benzazepin-6-ol] stands over 100 µM; under `CCN(CC)CC(=O)N1CC[C@@]23C=C[C@H](O)C[C@@H]2Oc2c(OC)ccc(c23)C1` [Example 49, 1-((4aS,6R,8aS)-6-hydroxy-3-methoxy-5,6,9,10-tetrahydro-4aH-[1]benzofuro[3a,3,2-ef][2]benzazepine-11(12H)-yl]-2-(diethylamino) ethan-1-one], 40 µM; under `COc1ccc2c3c1O[C@H]1C[C@H](O)C=C[C@@]31CCN(CCN1CCOCC1)C2` [Example 15, (4aS,6S,8aS)-4a,5,9,10,11,12-hexahydro-11-(2-(morpholin-4-yl)-ethyl)-3-methoxy-6H-[1]benzofuro[3a,3,2-ef][2]benzazepin-6-ol], over 100 µM.
Same read-out and setting: under `COc1ccc2c3c1O[C@H]1C[C@H](O)C=C[C@@]31CCN(C(=O)c1ccccc1)C2` [Example 19, (4aS,6S,8aS)-4a,5,9,10,11,12-hexahydro-3-methoxy-11-benzoyl-6H-[1]benzafuro[3a,3,2-ef][2]benzazepin-6-ol] stands over 100 µM.
Turning to `COc1ccc2c3c1O[C@H]1C[C@@H](O)C=C[C@@]31CCN(CCc1ccccc1Nc1c(Cl)cccc1Cl)C2` [Example 40, 1-((4aS,6R,8aS)-6-hydroxy-3-methoxy-5,6,9,10-tetrahydro-4aH-[1]benzofuro[3a,3,2-ef][2]benzazepine-11(12H)-yl)-2-[2-(2,6-dichloranilino)]-phenylethane], the IC50 was found to be 1.3 µM.
In the case of `CCOC(=O)CN1CC[C@@]23C=C[C@H](O)C[C@@H]2Oc2c(OC)ccc(c23)C1` [Example 44, Ethyl-2-((4aS,6R,8aS)-6-hydroxy-3-methoxy-5,6,9,10-tetrahydro-4aH-[1]benzofuro[3a,3,2-ef][2]benzazepine-11(12H)-yl)acetate], the IC50 was 42 µM.
On the same count and under the same terms, under `COc1cc(Br)c2c3c1O[C@@H]1C[C@H](O)C=C[C@]31CCN(C(=O)CN1CCN(C)CC1)C2` [Example 7, 1-[(4aR,6S,8aR)-1-bromo-6-hydroxy-3-methoxy-5,6,9,10-tetrahydro-4aH-[1]benzofuro[3a,3,2-ef][2]benzazepine-11(12H)-yl]-2-(4-methylpiperazinyl)ethan-1-one] stands over 100 µM.

In the next assay the target is acetylcholinesterase (Homo sapiens, UniProt P22303). The experiment in a line: biochemical. The conditions noted are these: read-out: Acetylcholinesterase IC-50.
acetylcholinesterase, sequence (P22303 32-614, species assumed): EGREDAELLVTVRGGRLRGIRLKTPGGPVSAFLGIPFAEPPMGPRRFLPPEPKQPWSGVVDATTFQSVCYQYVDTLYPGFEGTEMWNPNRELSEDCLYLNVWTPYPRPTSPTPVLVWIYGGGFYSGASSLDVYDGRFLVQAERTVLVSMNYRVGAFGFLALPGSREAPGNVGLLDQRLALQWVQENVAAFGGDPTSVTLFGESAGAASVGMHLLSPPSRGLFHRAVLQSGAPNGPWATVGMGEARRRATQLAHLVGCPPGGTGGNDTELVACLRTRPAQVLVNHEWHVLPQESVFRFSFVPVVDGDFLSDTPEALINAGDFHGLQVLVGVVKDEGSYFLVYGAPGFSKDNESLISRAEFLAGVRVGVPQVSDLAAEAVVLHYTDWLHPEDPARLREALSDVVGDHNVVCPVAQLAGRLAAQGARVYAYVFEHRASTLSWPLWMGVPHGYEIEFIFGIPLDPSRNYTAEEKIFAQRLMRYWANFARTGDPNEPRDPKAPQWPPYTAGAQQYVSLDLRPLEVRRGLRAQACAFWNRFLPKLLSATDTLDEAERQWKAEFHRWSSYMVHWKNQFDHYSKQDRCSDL
As to `COc1ccc2c3c1O[C@H]1C=C(C(C)C)C=C[C@@]31CCN(C)C2` [Example 61, (4aS,8aS)-D5,6-4a,5,9,10,11,12-hexahydro-6-(isopropyl)-11-methyl-3-methoxy-6H-[1]benzofuro [3a,3,2-ef][2]benzazepine], the IC50 is over 100 µM.
The same measure, in the same setting: the value for `COc1cc(Br)c2c3c1O[C@@H]1C[C@H](O)C=C[C@]31CCN(Cc1ccccc1)C2` [Example 6, (4aR,6S,8aR)-11-benzyl-1-bromo-4a,5,9,10,11,12-hexahydro-3-methoxy-6H-[1]benzofuro[3a,3,2-ef][2]benzazepin-6-ol] was over 100 µM; that for `COc1cc(Br)c2c3c1O[C@@H]1C[C@H](O)C=C[C@]31CCN(CCCN1CCN(C)CC1)C2` [Example 8, (4aR,6R,8aR)-11-(3-(4-methylpiperazine)-1-yl-propyl)-3-methoxy-5,6,9,10,11,12-hexahydro-4aH-[1]benzofuro[3a,3,2-ef][2]benzazepin-6-oI, Trihydrochloride] was over 100 µM.
